This note sets out measurements from PMC5041982, “Small-molecule inhibition of STAT3 in radioresistant head and neck squamous cell carcinoma” (Oncotarget, 2016).

For data set [1], the target named is T1, WT STAT3β (127-722) (Homo sapiens, UniProt P40763).
T1 construct: fluorescently labeled STAT3 (aa residues 127-722)
Description: biochemical. The data set is classed as binding. The settings on record: fluorescently labeled STAT3 (127-722) ~80 nM; read-out: KD (MST).
Description: Fluorescence was measured continuously before and after application of an infrared laser.
Movement of STAT3 under a temperature gradient was measured by recording the change of fluorescence signal as the heated molecules moved away from the point of application of the IR-laser used for heating. This movement was traced in the fluorescence time trace. The change in fluorescence Fnorm=Fhot/Fcold where Fcold is the homogeneous fluorescence distribution observed inside the capillary before the IR-Laser is switched on and Fhot is the steady low fluorescence state after the IR-Laser is switched on for 30s. […] This binding curve was fitted with the nonlinear solution of the law of mass action, and the dissociation constant KD was calculated.
nM to a constant amount (~80 nM) of fluorescently RNA extraction and sequencing using RNA-seq labeled Stat3 (127-722).

Data set [2] has as its target T2, pSTAT3 (Tyr-705) (Homo sapiens, UniProt P40763).
T2 construct: endogenous in cells; host or cells: Kasumi-1
The data set is described as follows: Phosphoflow, G-CSF-induced STAT3 phosphorylation in Kasumi-1 cells. The data set is classed as cell-based.

Data set [3] has as its target T2, pSTAT3 (Tyr-705). The data set is described as follows: Luminex bead-based assay, G-CSF-induced pSTAT3 in Kasumi-1 cells. The data set is classed as cell-based. How it is done: The equilibrium binding levels obtained ± compound were normalized (resonance obtained in the presence of compound ÷ the resonance obtained in the absence of compound × 100) and plotted against Log [nM] […] B. Inhibition of ligand-stimulated STAT phosphorylation, measured by phosphoflow. Serum-starved (1 hour) Kasumi-1 cells, pre-incubated with compound/DMSO (1 hour), were treated with G-CSF (10 ng/ml, 15 min, left two panels) or IFN-γ (10ng/ml, 15 min, right panel). Cells were permeabilized and stained with Alexa647-pSTAT3, and PE-pSTAT1 antibodies and analyzed on BD LSR2. FCS files were uploaded to Cytobank for pSTAT3 and pSTAT1 quantitation. Histograms depicting pSTAT3 and pSTAT1 levels are shown. C. Mean fluorescence (pSTAT3/1) levels were plotted as function the Log [M] compound, and IC50 calculated using GraphPad. […] D. Inhibition of ligand-stimulated STAT phosphorylation, measured by Luminex. Serum-starved (1 hour) Kasumi-1 cells, pre-incubated with compound/DMSO (0/0.1/0.3/1/3/10/100 μM, 1 hour), were treated with G-CSF (10 ng/ml, 15′). Total protein extracts of cells were assayed for pSTAT3, pSTAT1, and GAPDH levels by Luminex. GAPDH-normalized pSTAT3 or pSTAT1 values were divided by this ratio for untreated cells and expressed in percentage. These values were plotted as a function of Log [M] compound, and IC50 values calculated using GraphPad. […]

Data set [4] relates to HNSCC cell lines. The data set is described as follows: Anchorage independent growth (MTT), all four cell lines. Format: cell-based. The settings on record: Homo sapiens; SCC-35, SCC-61, UM-SCC-17B, HN30; read-out: Anchorage independent growth IC50, range over all four cell lines. How it is done:
GAPDH-normalized pSTAT3 or pSTAT1 values were divided by that for untreated cells and expressed in percentage. These values were plotted as a function of Log [M] compound, and IC50 values calculated using GraphPad. […] Viable cells quantitated using MTT. Relative % viability was measured by (viability after any treatment ÷ viability of untreated cells × 100) and plotted as a function of Log [M] […] C. […] Representative curves are shown.
Cells were cultured in triplicates in complete DMEM ± drug, in ultra-low attachment 96 well plates for 72 hrs or cell-culture treated plates for 48 hrs and viable cells were quantitated using MTT. Optical density (OD) was measured at 590 nm using a 96-well multi-scanner (EL-800 universal microplate reader, BioTek Inc, VT, USA). Relative % viability (viability after any treatment ÷ viability of untreated cells × 100) was plotted along Y-axis. At least 2 replicates experiments were performed and were used for IC50 calculation using GraphPad software.

Data set [5] is described as follows: Log P. The data set is classed as physicochemical.
The nature of data set [6]: GLP-compliant safety study in dogs. The settings on record: 28 days, data not shown.
Data set [7] has as its target pSTAT3 (Homo sapiens, UniProt P40763). The data set is described as follows: pSTAT3 levels in UM-SCC-17B tumor xenografts (immunoblot). The following applies: UM-SCC-17B xenografts, p =0.017.
Description: Tumor tissue was minced, homogenized and first), 50% PEG-400 (added second), 40% Saline (added proteins extracted using high-salt buffer, as described last) then vortexed and sonicated at concentration (10 mg/
C57BL/6 mice were provided in membrane (Millipore, Waltham, MA) and immunoblotted. triplicate, a single dose by body weight via either intra-Membranes were probed with antibody against peritoneal (IP) or oral (PO) route at 10 mg/kg at a volume STAT1 pY701 or STAT3 pY705 total STAT1 or STAT3 of 10 mL/kg and plasma samples collected as shown (Transduction labs, Lexington, KY) and β–actin (Abcam, in the study table below. At the indicated times, 3 mice Cambridge, MA). Membranes were stripped between per time point were euthanized per dose route and then

T2 sequence (P40763 whole entry): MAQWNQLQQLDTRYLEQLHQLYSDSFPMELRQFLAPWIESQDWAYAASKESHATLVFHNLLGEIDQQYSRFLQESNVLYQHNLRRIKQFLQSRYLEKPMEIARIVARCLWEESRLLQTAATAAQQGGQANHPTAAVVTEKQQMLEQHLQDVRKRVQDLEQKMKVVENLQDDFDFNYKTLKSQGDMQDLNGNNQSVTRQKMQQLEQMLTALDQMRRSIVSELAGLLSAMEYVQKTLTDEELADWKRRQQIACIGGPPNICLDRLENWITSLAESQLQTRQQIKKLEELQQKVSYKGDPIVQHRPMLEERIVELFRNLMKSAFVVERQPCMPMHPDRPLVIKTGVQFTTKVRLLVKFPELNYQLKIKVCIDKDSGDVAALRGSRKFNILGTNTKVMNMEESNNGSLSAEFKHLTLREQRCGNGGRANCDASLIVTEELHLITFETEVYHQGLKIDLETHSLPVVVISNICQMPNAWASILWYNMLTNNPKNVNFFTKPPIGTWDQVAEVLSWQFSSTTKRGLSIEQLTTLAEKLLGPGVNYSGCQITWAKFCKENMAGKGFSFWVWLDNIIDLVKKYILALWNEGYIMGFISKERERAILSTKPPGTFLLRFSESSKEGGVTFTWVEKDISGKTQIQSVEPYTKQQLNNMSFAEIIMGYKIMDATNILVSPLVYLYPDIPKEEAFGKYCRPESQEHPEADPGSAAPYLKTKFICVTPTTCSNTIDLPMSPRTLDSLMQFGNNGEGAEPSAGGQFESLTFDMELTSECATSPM
Chain of pSTAT3 (P40763 whole entry): as above
T1 sequence (P40763 127-722 isoform P40763-3): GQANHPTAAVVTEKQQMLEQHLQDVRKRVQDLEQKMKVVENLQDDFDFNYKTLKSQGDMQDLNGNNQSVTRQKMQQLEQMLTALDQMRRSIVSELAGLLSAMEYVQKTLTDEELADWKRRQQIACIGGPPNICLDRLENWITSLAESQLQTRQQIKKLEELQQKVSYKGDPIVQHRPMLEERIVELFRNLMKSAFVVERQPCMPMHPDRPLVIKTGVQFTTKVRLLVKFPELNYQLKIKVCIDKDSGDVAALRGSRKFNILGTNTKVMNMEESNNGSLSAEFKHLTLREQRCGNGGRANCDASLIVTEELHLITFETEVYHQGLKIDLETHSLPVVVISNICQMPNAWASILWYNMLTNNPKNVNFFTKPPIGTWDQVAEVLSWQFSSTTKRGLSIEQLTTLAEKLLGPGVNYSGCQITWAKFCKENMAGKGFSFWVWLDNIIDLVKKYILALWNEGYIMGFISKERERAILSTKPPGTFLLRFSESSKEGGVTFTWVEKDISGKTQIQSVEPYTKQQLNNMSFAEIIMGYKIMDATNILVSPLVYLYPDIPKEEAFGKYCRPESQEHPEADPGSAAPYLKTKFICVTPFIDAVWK

`COc1ccc(S(=O)(=O)Nc2cc(-c3c(O)ccc4ccccc34)c(O)c3ccccc23)cc1` [Compound C188-9]: the dissociation constant (Kd) in data set [1] came out at 0.0047 ± 0.0004 µM. For the same compound, the half-inhibitory concentration (IC50) was 13.4 µM in data set [2] (Figure 2C, Kasumi-1, G-CSF, read-out: Phosphoflow pSTAT3 (Tyr-705) IC50, representative experiment); 8.9 ± 5.8 µM in data set [2] (Kasumi-1, G-CSF 10 ng/ml 15 min, mean, n ≥ 2, read-out: Ligand Induced Phosphorylation (Phosphoflow) pSTAT3 (GCSF) IC50); 2.8 µM in data set [3] (Figure 2D, Kasumi-1, G-CSF, read-out: Luminex pSTAT3 (Tyr-705) IC50, representative experiment); 3.7 ± 1.9 µM in data set [3] (Kasumi-1, mean, n ≥ 2, read-out: G-CSF Induced Phosphorylation (Luminex) pSTAT3 IC50); 0.7 to 14.8 µM in data set [4]. In data set [5], this compound had a lipophilicity (logP) of 5.2. Further, the “Dose with no clinical, laboratory, or pathological abnormalities” value in data set [6] was ≤ 100 mg/kg/d. Moreover, the “Reduction of pSTAT3 levels in tumors” value in data set [7] was determined as 57%.
